Measurements taken from patent publication US20060135588A1, “Preventive and/or therapeutic drugs for inflammatory intestinal diseases” (priority 2002, published 2006).

Experiments:
Assay type in all cases: in vivo, Sprague-Dawley male rats
[1] = test system: Dextran sulfate sodium (DSS)-induced colitis; experiment: Evaluation of DSS-induced colitis by naked eyes (wet weight of large intestine, injured mucosa area); conditions: all groups: 1, 5 and 20 mg/kg/day s.c., 8 days of 4% DSS diet
Protocol: (§1) The edaravone as synthesized above was dissolved in a small amount of 1 N sodium hydroxide solution. Thereafter, the pH thereof was adjusted to be around neutral.
(§2) 6-week-old Sprague-Dawley male rats (Clea Japan, Inc.) were used. According to the method described in the previous report (Araki Y. et al., Scand J Gastroentero, 35, 1060-1067, 2000), colitis was induced to develop in the rats as follows. That is to say, 4% (w/w) dextran sulfate sodium (DSS; molecular weight: 5,000; Wako Pure Chemical Industries, Ltd., Osaka) was added to a powder diet MF (Oriental Yeast Co., Ltd.). The rats were fed with the thus obtained mixed diet at an amount of 30 g/day/rat for 8 days. […]
8 days later, the rats were subjected to anatomy. […] Thereafter, the large intestine (the colon and the rectum) was excised, and the wet weight of the organ was measured. The degree of the injured large intestinal mucosa was evaluated by naked eyes according to the method described in the previous report (Araki Y. et al., Scand J Gastroentero, 35, 1060-1067, 2000). That is, the areas of portions, on which a change in the color tone of the mucosa (redness), an attachment of blood clots, a collapse of mucosal wall area, edema, or erosion were observed, were measured. […]

[2] = test system: myeloperoxidase activity in the large intestinal mucosa; experiment: Myeloperoxidase activity in large intestinal mucosa of rats with DSS-induced colitis; conditions: 8 days DSS, FIG. 3(B)
Protocol: as §1, §2
Myeloperoxidase activity used as an indicator of inflammation in the large intestinal mucosa was measured by the method described in the previous report (Araki Y. et al., Clin Exp Immunol, 119, 264-269, 2000). […] The activity of the obtained homogenate was observed as a change in the absorbance at 460 nm obtained as a result of the reaction of H2O2 with o-dianisidin.
Hyperoxidation of lipids is an important mechanism regarding tissue injury. […] Accordingly, the concentrations of MDA and 4-HNE in the large intestinal mucosa were measured, and the obtained values were used as indicators of the state of reactive oxygen species (ROS) in tissues (Matsumura N. et al., Pancreas, 22, 53-7, 2001). […]

[3] = test system: interleukin-6 in the plasma; experiment: Concentration of interleukin-6 in plasma of rats with DSS-induced colitis (ELISA); conditions: 8 days DSS, FIG. 4(B)
Protocol: as §1
as §2, with “days. With regard to edaravone administration groups, from immediately after initiation of the administration of DSS, edaravone was subcutaneously injected into the back of each rat, at a dose of 1 mg/kg/day, 5 mg/kg/day, or 20 mg/kg/day, which was dividedly administered in the morning and evening.” for “days.”
The concentration of interleukin-6 in the plasma was measured as an indicator of a systemic inflammatory reaction. That is to say, the blood was centrifuged at 10,000 rpm, and then the concentration of interleukin-6 in the plasma was measured by the ELISA method (Rat IL-6 ELISA KIT, BioSource Europe, S.A., Belgium). […]

[4] = test system: Dextran sulfate sodium (DSS)-induced colitis; experiment: Histological evaluation of DSS-induced colitis (damage score); conditions: 8 days DSS; for damage score vs control group: FIG. 3(A)
Protocol: as §1
6-week-old Sprague-Dawley male rats (Clea Japan, Inc.) were used. According to the method described in the previous report (Araki Y. et al., Scand J Gastroentero, 35, 1060-1067, 2000), colitis was induced to develop in the rats as follows. That is to say, 4% (w/w) dextran sulfate sodium (DSS; molecular weight: 5,000; Wako Pure Chemical Industries, Ltd., Osaka) was added to a powder diet MF (Oriental Yeast Co., Ltd.). The rats were fed with the thus obtained mixed diet at an amount of 30 g/day/rat for 8 days. With regard to edaravone administration groups, from immediately after initiation of the administration of DSS, edaravone was subcutaneously injected into the back of each rat, at a dose of 1 mg/kg/day, 5 mg/kg/day, or 20 mg/kg/day, which was dividedly administered in the morning and evening. With regard to a control group, a normal saline solution was subcutaneously injected into the back of each rat in the same above manner.
The mucosa located at 5 mm from the anus side was fixed with a Carnoy's fluid for 3 hours, and was then embedded in paraffin. Thereafter, a tissue fragment with a thickness of 5 μm was prepared, followed by hematoxylin-eosin staining. Scoring of colitis was conducted in accordance with the method described in the previous report (Araki Y. et al., Scand J Gastroentero, 35, 1060-1067, 2000). Namely, the degree and size of each of the following 3 items: (i) the absence of the mucosal epithelium, (ii) deformation of crypts, and (iii) the level of infiltration of inflammatory cells, are expressed in the following point system: 0: none; 1: slight and localized; 2: moderate and localized; 3: moderate and broad; and 4: severe and broad. The total points regarding the above 3 items were summed up, and the obtained value was defined as the histological colitis score (damage score) of a rat.
The results are shown as mean±SEM. The comparison between groups was carried out by Fisher's PLSD Test. […]

[5] = test system: MDA and 4-HNE in the large intestinal mucosa; experiment: Concentrations of MDA and 4-HNE in large intestinal mucosa of rats with DSS-induced colitis; conditions: all groups: 1, 5 and 20 mg/kg/day s.c., 8 days DSS; no significant differences among the administration groups; FIG. 4(A)
Protocol: as §1, §2
Hyperoxidation of lipids is an important mechanism regarding tissue injury. […] Accordingly, the concentrations of MDA and 4-HNE in the large intestinal mucosa were measured, and the obtained values were used as indicators of the state of reactive oxygen species (ROS) in tissues (Matsumura N. et al., Pancreas, 22, 53-7, 2001). That is, the large intestinal mucosa was homogenized with 9 times its volume of 50 mmol/l Tris-buffer (pH 8.0) containing 0.5% Triton X-100, and the concentrations were measured using an assay kit, Lipid peroxidation assay kit (Calbiochem, La Jolla, Calif., U.S.A.). […]

[6] = all groups: 1, 5 and 20 mg/kg/day s.c.

Compound: CC1=NN(c2ccccc2)C(=O)C1 [edaravone, 3-methyl-1-phenyl-2-pyrazolin-5-one]
- injured mucosa area vs control group ([1]; FIG. 1(B)): significantly smaller
- wet weight of the large intestine vs control group ([1]; divided morning and evening, FIG. 1(A)): significantly lower
- myeloperoxidase activity in the large intestinal mucosa vs control group ([2]; 20 mg/kg/day s.c.): significantly lower
- myeloperoxidase activity in the large intestinal mucosa vs control group [2, 6]: lower
- concentration of IL-6 in the plasma vs control group ([3]; 20 mg/kg/day s.c.): significantly lower
- concentration of IL-6 in the plasma vs control group [3, 6]: lower
- damage score vs control group ([4]; 20 mg/kg/day s.c.): significantly lower
- edema formed in the submucosal layer and infiltration of inflammatory cells (large intestine tissue image) ([4]; 1, 5 and 20 mg/kg/day s.c., hematoxylin-eosin, FIG. 2): suppressed
- damage score vs control group [4, 6]: lower
- concentrations of MDA and 4-HNE in the large intestinal mucosa vs control group [5]: lower
